Values quoted from earlier work as cited in patent US20230064685A1, “METHODS AND COMPOSITIONS TO INHIBIT SYMPTOMS ASSOCIATED WITH VEISALGIA” (SEN-JAM PHARMACEUTICAL LLC, priority 2015, published 2023).

Key:
alcohol hangover = conditions: randomized controlled trials reviewed by Pittler et al. 2005
[1] = system: hangover symptom of thirst; conditions: each drug alone; general statement, no test described

SMILES	intergroup differences for overall symptom scores and individual symptoms (alcohol hangover)	effect or side effect of reducing thirst [1]
CCCCC/C=C\C/C=C\C/C=C\CCCCC(=O)O [γ linolenic acid from B officinalis, γ linolenic acid]	Significant intergroup differences	
CC(C)(C(=O)O)c1ccc(C(O)CCCN2CCC(C(O)(c3ccccc3)c3ccccc3)CC2)cc1 (racemic) [fexofenadine, (±)-4-[1 hydroxy-4-[4-(hydroxydiphenylmethyl)-1-piperidinyl]-butyl]-α, α-dimethyl benzeneacetic acid]		neither naproxen nor fexofenadine, alone, has shown any effect or side effect of reducing thirst
COc1ccc2cc(C(C)C(=O)O)ccc2c1 (stereo not drawn) [naproxen, 6-methoxy-α-methyl-2-naphthaleneacetic acid]		neither naproxen nor fexofenadine, alone, has shown any effect or side effect of reducing thirst
Cc1c(Cl)cccc1Nc1ccccc1C(=O)O [tolfenamic acid]	Significant intergroup differences	
